These results are taken from patent publication US5202130A, “Suppression of eczematous dermatitis by calcium transport inhibition” (The Johns Hopkins University, priority 1989, dated 1993).

Series [1] has as its system contact sensitization against DNCB. In words: Inhibition of sensitization by diltiazem against DNCB (ear swelling). The series is classed as in vivo, BALB/c mice. The procedure: Diltiazem HCl (1,5-Benzothiazepin-4(5H)one, 3-acetoy lox-5-(2-(dimethylamine)ethyl)-2, 3-dihydro-2(4-methoxyphenyl)-, monohydrochloride, (+)-cis) was injected intraperitoneally in a dose of 30 mg/kg (LD50 =60 mg per kg) two times a day for three days. Two hours after the first injection, mice were sensitized by applying DNCB to the shaved dorsal back skin. Contact sensitization against DNCB was determined five days later.

For series [2] the following is noted: stated with intraperitoneal administration in mice; no test described; cited from earlier work.
For series [3] the following is noted: following intraperitoneal administration; cited from earlier work.
The test system of series [4] is epidermal Langerhans cells (ELC). In words: Density and morphology of epidermal Langerhans cells, ATPase and Ia staining. It is filed as in vivo, BALB/c mice. The text has this:
Mice were sacrificed by cervical dislocation and their ears were amputated at the base. The skin was separated from underlying cartilage by dissection and pressed dermal side up onto an adhesive surface of a double stick tape (Dermotome Tape, 3M, St. Paul, Minn.), that had previously been fixed onto a glass slide. […] (25,26), then the epidermis was separated as an intact sheet from the underlying dermis.
Epidermal sheets were stained for ATPase activity according to MacKenzie and Squier (27). Briefly, epidermal sheets were fixed in Tris-maleic acid buffered 4% paraformaldehyde, pH 7.3, for 20 minutes at 4° C. After three washes with a 0.9% NaCl solution, the epidermal sheets were incubated at pH 7.3 in a solution containing 10 mg ATP, 5 ml of 10% MgSO4, 3 ml of 2% […], and 42 ml Tris-maleic acid buffer for one hour at 37° C., washed with 0.9% NaCl solution, and reacted with 0.1% ammonium sulfide for five minutes at room temperature. The stained specimens were mounted in a 9:1 mixture of PBS/glycerol.
Ia-positive cells were stained as follows: EDTA separated epidermal specimens, washed in PBS for 30 minutes, were fixed in cold acetone (-20° C.) for 20 minutes. After washing with PBS, the epidermal sheets were incubated with a 1:100 dilution of anti-mouse I-A^d monoclonal antibody (Becton Dickinson, Mountain View, Calif.) at 4° C. overnight (28). Subsequently, specimens were washed in PBS for two hours and exposed to fluorescein conjugated F(ab')2 fragment goat anti-mouse IgG (Organon Teknika Corp., West Chester, Pa.) at a 1:50 dilution for two hours at 37° C. The epidermal sheets were mounted in Perma Fluor (Lipshaw, Detroit, Mich.).
Slides were coded and read in a "blinded" manner. The density of ELC within each epidermal sheet was determined by using a dual epifluorescent and light microscope (Olympus BH-2, Japan) with a calibrated net micrometer grid. ATPase-positive ELC and Ia-positive ELC present in a 0.25 mm^2 area were counted in two random fields per sheet (total: 16 fields per experimental group). ELC density was recorded as the number of cells per mm^2 (mean ±S.E.). Statistical significance of the differences between treatment and control groups was calculated using a two-talled Wilcoxon Rank Sum Test. Differences between groups were considered significant at p=0.05.

Setting [5] is: 0.25 mg per animal intraperitoneally for five days, vs control animals.

Where a name gives a salt, the structure may show the parent alone.

In the case of `COc1ccc([C@@H]2Sc3ccccc3N(CCN(C)C)C(=O)[C@@H]2OC(C)=O)cc1` [diltiazem, 1,5-Benzothiazepin-4(5H)one, 3-acetoy lox-5-(2-(dimethylamine)ethyl)-2,3-dihydro-2(4-methoxyphenyl)-, monohydrochloride, (+)-cis], the “reduction in the contact hypersensitivity response” value in series [1] (30 mg/kg intraperitoneally two times a day for three days, p=0.001) worked out at 67%. The “decrease in ear thickness 24 h post-challenge” value in series [1] (FIG. 3, vs. solvent only, p<0.001) is 67%. Moreover, the “difference in ear swelling between pretreated and control animals” value in series [1] (statement follows negative controls (challenged, not sensitized) 0.03±0.01 mm) is recorded as “not statistically significant”. In addition, the ear swelling in series [1] (vehicle control 0.15±0.02 mm) turned out to be 0.05±0.01 mm. For the same molecule, the LD50 in series [2] is given as 60 mg per kg.

Consider lanthanum citrate [La^3+ citrate], for which the “accumulation in the skin” value in series [3] was “accumulated in the skin”. In series [4] (setting [5]), the “decrease in density of ATPase positive cells” value turned out to be 13% and the “decrease in number of Ia-positive cells” value is reported as 14%. Besides, the “Density of Langerhans cells in ear skin, ATPase” value in series [4] (ATPase staining, ± S.E., 0.9% NaCl 807 ± 55) was 702 ± 49 cells/mm^2. Besides, the “Density of Langerhans cells in ear skin, Ia” value in series [4] (Ia staining, ± S.E., 0.9% NaCl 830 ± 46) turned out to be 715 ± 59 cells/mm^2. Moreover, the “ELC "rounded up" and without dendrites” value in series [4] (in focal areas, ATPase and Ia staining) is “approximately 20%”. Besides, the “staining of "round" cells by the ATPase technique” value in series [4] (subjectively measured by darkening of the cell body) is reported as “more darkly stained”.
